Assay results reported in US20070128217A1 (priority 2003, published 2007).

Tests used:
[1] = test system: antibodies in sera from SARS patients (sera 1a, 1b, 2, 6, 37, 62, London, SARS-yellow, SARS-green); type: binding, human; set-up: Binding of serum 6 to linear peptides of protein X1 of SARS-CoV Urbani / Binding of serum 37 to linear peptides of protein X1 of SARS-CoV Urbani / Binding of serum 6 to looped/cyclic peptide (PEPSCAN-ELISA) / Binding of serum 37 to looped/cyclic peptide (PEPSCAN-ELISA) / Binding of serum 37 to looped/cyclic peptides of protein X1 of SARS-CoV Urbani / Binding of serum 6 to linear peptides of protein X2 / Binding of serum 37 to linear peptides of protein X2 / Binding of serum 37 to looped/cyclic peptides of protein X2 of SARS-CoV Urbani / Binding of serum 6 to linear peptides of protein M of SARS-CoV Urbani / Binding of serum 37 to linear peptides of protein M of SARS-CoV Urbani / Binding of serum 6 to looped/cyclic peptides of protein M of SARS-CoV Urbani / Binding of serum 37 to looped/cyclic peptides of protein M of SARS-CoV Urbani / Binding of serum 6 to linear peptides of protein X3 of SARS-CoV Urbani / Binding of serum 37 to linear peptides of protein X3 of SARS-CoV Urbani / Binding of serum 37 to looped/cyclic peptides of protein X3 of SARS-CoV Urbani / Binding of serum 6 to linear peptides of protein X4 of SARS-CoV Urbani / Binding of serum 37 to linear peptides of protein X4 of SARS-CoV Urbani / Binding of serum 37 to looped/cyclic peptides of protein X4 of SARS-CoV Urbani / Binding of serum 6 to linear peptides of protein X5 of SARS-CoV Urbani / Binding of serum 37 to linear peptides of protein X5 of SARS-CoV Urbani / Binding of serum 37 to looped/cyclic peptides of protein X5 of SARS-CoV Urbani / Binding of serum 6 to linear peptides of protein N of SARS-CoV Urbani / Binding of serum 37 to linear peptides of protein N of SARS-CoV Urbani / Binding of serum 6 to linear peptide (PEPSCAN-ELISA) / Binding of serum 1a to looped/cyclic peptides of protein N of SARS-CoV Urbani / Binding of serum 1b to looped/cyclic peptides of protein N of SARS-CoV Urbani / Binding of serum 2 to looped/cyclic peptides of protein N of SARS-CoV Urbani / Binding of serum 6 to looped/cyclic peptides of protein N of SARS-CoV Urbani / Binding of serum 37 to looped/cyclic peptides of protein N of SARS-CoV Urbani / Binding of serum 62 to looped/cyclic peptides of protein N of SARS-CoV Urbani / Binding of serum London to looped/cyclic peptides of protein N of SARS-CoV Urbani / Binding of serum SARS-green to looped/cyclic peptides of protein N of SARS-CoV Urbani: unit not given here
[2] = test system: control sera (pooled serum of ten healthy LUMC hospital workers; commercial negative donor pooled serum from the Dutch bloodbank); type: binding, human; set-up: Binding of Control serum LUMC to linear peptides / Binding of Control serum Blood-bank to linear peptides / Binding of Control serum LUMC to looped peptides / Binding of Control Serum Blood-Bank to Looped peptides / Binding of Control serum LUMC to linear peptides of the protein M of SARS-CoV Urbani / Binding of Control serum Blood-bank to linear peptides of the protein M of SARS-CoV Urbani / Binding of Control serum LUMC to looped peptides of the protein M of SARS-CoV Urbani / Binding of Control Serum Blood-Bank to Looped peptides of the protein M of SARS-CoV Urbani: unit not given here
[3] = test system: rabbit serum obtained by immunizing a rabbit with the SARS-CoV strain Frankfurt 1; type: binding; set-up: Binding of a rabbit serum to linear peptides / Binding of a rabbit serum to looped peptides / Rabbit serum linear peptides / Rabbit serum looped peptides / Binding of a rabbit serum to linear peptides of protein N of SARS-CoV Urbani (Rabbit serum linear peptides) / Binding of a rabbit serum to looped/cyclic peptides of protein N of SARS-CoV Urbani (Rabbit serum looped peptides): unit not given here
[4] = test system: recombinant human anti-SARS-CoV antibody 03-018; type: binding; set-up: Binding of antibody 03-018 to linear peptides of the N protein of SARS-CoV Urbani / Binding of antibody 03-018 to looped/cyclic peptides of the N protein of SARS-CoV Urbani: unit not given here

| Sequence | Binding of serum 1a to looped/cyclic peptides of protein N of SARS-CoV Urbani [1] | Binding of serum 1b to looped/cyclic peptides of protein N of SARS-CoV Urbani [1] | Binding of serum 2 to looped/cyclic peptides of protein N of SARS-CoV Urbani [1] | Binding of serum 6 to looped/cyclic peptides of protein N of SARS-CoV Urbani [1] | Binding of serum 37 to looped/cyclic peptides of protein N of SARS-CoV Urbani [1] | Binding of serum 62 to looped/cyclic peptides of protein N of SARS-CoV Urbani [1] | Binding of serum London to looped/cyclic peptides of protein N of SARS-CoV Urbani [1] | Binding of serum SARS-green to looped/cyclic peptides of protein N of SARS-CoV Urbani [1] | Binding of serum SARS-yellow to looped/cyclic peptides of protein N of SARS-CoV Urbani [1] | Binding of a rabbit serum to linear peptides of protein N of SARS-CoV Urbani (Rabbit serum linear peptides) [3] | Binding of a rabbit serum to looped/cyclic peptides of protein N of SARS-CoV Urbani (Rabbit serum looped peptides) [3] | Binding of antibody 03-018 to linear peptides of the N protein of SARS-CoV Urbani [4] | Binding of antibody 03-018 to looped/cyclic peptides of the N protein of SARS-CoV Urbani [4] | Binding of serum 1a to linear peptides of protein N of SARS-CoV Urbani [1] | Binding of serum 1b to linear peptides of protein N of SARS-CoV Urbani [1] | Binding of serum 2 to linear peptides of protein N of SARS-CoV Urbani [1] | Binding of serum 6 to linear peptides of protein N of SARS-CoV Urbani [1] | Binding of serum 37 to linear peptides of protein N of SARS-CoV Urbani [1] | Binding of serum 62 to linear peptides of protein N of SARS-CoV Urbani [1] | Binding of serum London to linear peptides of protein N of SARS-CoV Urbani [1] | other results |
| --- | --- | --- | --- | --- | --- | --- | --- | --- | --- | --- | --- | --- | --- | --- | --- | --- | --- | --- | --- | --- | --- |
| ALALLLLDRLNQLES | 0.4 | 0.2 | 0.4 | 0.2 | 0.8 | 0.7 | 0.5 | 0.4 | 0.5 | 0.2 | 0.6 | 0.1 | 0.3 |  |  |  |  |  |  |  | Binding of serum 1a to linear peptide (PEPSCAN-ELISA) [1]: 0.3; Binding of serum 1b to linear peptide (PEPSCAN-ELISA) [1]: 0.2; Binding of serum 2 to linear peptide (PEPSCAN-ELISA) [1]: 0.1; Binding of serum 6 to linear peptide (PEPSCAN-ELISA) [1]: 0.2; Binding of serum 37 to linear peptide (PEPSCAN-ELISA) [1]: 0.5; Binding of serum 62 to linear peptide (PEPSCAN-ELISA) [1]: 0.6; Binding of serum London to linear peptide (PEPSCAN-ELISA) [1]: 0.5; Binding of serum SARS-green to linear peptide (PEPSCAN-ELISA) [1]: 0.4; Binding of serum SARS-yellow to linear peptide (PEPSCAN-ELISA) [1]: 0.5; Binding of Control Serum Blood-Bank to Looped peptides [2]: 0.8; Binding of Control serum Blood-bank to linear peptides [2]: 0.7; Binding of Control serum LUMC to linear peptides [2]: 0.7; Binding of Control serum LUMC to looped peptides [2]: 0.8 |
| APRITFGGPTDSTDN | 0.4 | 0.2 | 0.3 | 0.2 | 0.6 | 0.6 | 0.2 | 0.6 | 0.4 | 0.2 | 0.6 |  |  | 0.2 | 0.2 | 0.2 | 0.2 | 0.8 | 0.7 | 0.6 | Binding of serum SARS-green to linear peptides of protein N of SARS-CoV Urbani [1]: 0.6; Binding of serum SARS-yellow to linear peptides of protein N of SARS-CoV Urbani [1]: 0.3; Binding of Control Serum Blood-Bank to Looped peptides [2]: 0.6; Binding of Control serum Blood-bank to linear peptides [2]: 0.6; Binding of Control serum LUMC to linear peptides [2]: 0.5; Binding of Control serum LUMC to looped peptides [2]: 0.6; Recognition of the peptide by antibody 03-018 [4]: recognized |
| APSASAFFGMSRIGM | 0.4 | 0.3 | 0.7 | 0.4 | 0.7 | 0.9 | 2.0 | 0.5 | 0.6 | 0.1 | 0.4 | 0.1 | 0.2 | 0.2 | 0.1 | 0.2 | 0.1 | 0.5 | 0.5 | 0.6 | Binding of serum SARS-green to linear peptides of protein N of SARS-CoV Urbani [1]: 0.2; Binding of serum SARS-yellow to linear peptides of protein N of SARS-CoV Urbani [1]: 0.4; Control Serum Blood-Bank Looped peptides [2]: 0.8; Control serum Blood-bank linear peptides [2]: 0.7; Control serum LUMC linear peptides [2]: 0.5; Control serum LUMC looped peptides [2]: 0.6 |
| AQFAPSASAFFGMSR | 0.3 | 0.2 | 0.6 | 0.5 | 0.8 | 0.6 | 2.1 | 0.2 | 0.4 | 0.1 | 0.7 | 0.1 | 0.3 | 0.2 | 0.1 | 0.1 | 0.1 | 0.5 | 0.4 | 0.4 | Binding of serum SARS-green to linear peptides of protein N of SARS-CoV Urbani [1]: 0.1; Binding of serum SARS-yellow to linear peptides of protein N of SARS-CoV Urbani [1]: 0.6; Control Serum Blood-Bank Looped peptides [2]: 0.8; Control serum Blood-bank linear peptides [2]: 0.7; Control serum LUMC linear peptides [2]: 0.5; Control serum LUMC looped peptides [2]: 0.6 |
